The source made the active and inactive calls. The calls are words filed in the database; no cut-off is given here. Where a SMILES comes first, the peptide text is derived from it. Bridges are numbered along the chain shown (N, C = ends).
What was measured:
4T1 [1] = experiment: Cytotoxicity against mouse 4T1 cells assessed as cell viability by MTT assay; assay type: functional, cell-based
4T1 [2] = experiment: Induction of apoptosis in mouse 4T1 cells assessed as increase in caspase-3 activity measured at 30 mins; assay type: functional, cell-based
4T1 [3] = experiment: Cytotoxicity against mouse 4T1 cells assessed as cell death rate at 4 uM measured after 15 mins by MTT assay; assay type: functional, cell-based
4T1 [4] = experiment: Induction of immunogenic cell death in mouse 4T1 cells assessed as HMGB1 release at 4 to 32 uM measured after 4 hrs; assay type: functional, cell-based; conditions: dose 4-32 µM
4T1 [5] = experiment: Induction of necrosis in mouse 4T1 cells cocultured with mouse BMDC cells at 15 uM incubated for 4 hrs by flow cytometry analysis; assay type: functional, cell-based
4T1 [6] = experiment: Induction of apoptosis in mouse 4T1 cells assessed as increase in caspase-3 activity measured at 60 mins; assay type: functional, cell-based
4T1 [7] = experiment: Induction of immunogenic cell death in mouse 4T1 cells assessed as ATP release at 4 to 32 uM measured after 2 hrs; assay type: functional, cell-based; conditions: dose 4-32 µM
4T1 [8] = experiment: Cytotoxicity against mouse 4T1 cells assessed as cell death rate at 4 uM measured after 2 hrs by MTT assay; assay type: functional
4T1 [9] = experiment: Induction of immunogenic cell death in mouse 4T1 cells assessed as HMGB1 release at 4 to 32 uM measured after 2 hrs; assay type: functional, cell-based; conditions: dose 4-32 µM
4T1 [10] = experiment: Induction of apoptosis in mouse 4T1 cells assessed as cell death in presence of Ac-DEVD-CHO; assay type: functional, cell-based
4T1 [11] = experiment: Induction of ROS generation in mouse 4T1 cells 24 hrs by DCFDA-fluorescence based flow cytometry; assay type: functional, cell-based
4T1 [12] = experiment: Induction of morphological changes in mouse 4T1 cells at 10 uM by PI staining based confocal microscopic analysis; assay type: functional, cell-based
4T1 [13] = experiment: Induction of apoptosis in mouse 4T1 cells assessed as early apoptotic cell incubated for 24 hrs by Annexin V/FITC staining based flow cytometry analysis; assay type: functional
4T1 [14] = experiment: Cytotoxicity against mouse 4T1 cells assessed as cell death rate at 10 uM by PI staining based confocal microscopic analysis; assay type: functional
4T1 [15] = experiment: Induction of immunogenic cell death in mouse 4T1 cells assessed as ATP release at 4 to 32 uM measured after 4 hrs; assay type: functional, cell-based; conditions: dose 4-32 µM
4T1 [16] = experiment: Induction of immunogenic cell death in mouse 4T1 cells assessed as ATP release at 2 to 16 uM measured after 2 hrs; assay type: functional, cell-based; conditions: dose 2-16 µM
4T1 [17] = experiment: Induction of necrosis in mouse 4T1 cells cocultured with mouse BMDC cells at 6 uM incubated for 4 hrs by flow cytometry analysis; assay type: functional, cell-based
4T1 [18] = experiment: Cytotoxicity against mouse 4T1 cells assessed as cell death rate at 4 uM measured at 30 mins by MTT assay relative to control; assay type: functional; conditions: 0.5 h
4T1 [19] = experiment: Induction of immunogenic cell death in mouse 4T1 cells assessed as ATP release at 2 to 16 uM measured after 4 hrs; assay type: functional, cell-based; conditions: dose 2-16 µM
4T1 [20] = experiment: Cytotoxicity against mouse 4T1 cells assessed as cell death rate at 4 uM measured at 15 mins by MTT assay relative to control; assay type: functional; conditions: 0.25 h
4T1 [21] = experiment: Induction of morphological changes in mouse 4T1 cells at 4 uM by PI staining based confocal microscopic analysis; assay type: functional, cell-based
4T1 [22] = experiment: Induction of immunogenic cell death in mouse 4T1 cells assessed as HMGB1 release at 2 to 16 uM measured after 2 hrs; assay type: functional, cell-based; conditions: dose 2-16 µM
4T1 [23] = experiment: Induction of immunogenic cell death in mouse 4T1 cells assessed as increase in CRT translocation to cell surface at 2 to 16 uM; assay type: functional, cell-based; conditions: dose 2-16 µM
4T1 [24] = experiment: Cytotoxicity against mouse 4T1 cells; assay type: functional, cell-based
4T1 [25] = experiment: Induction of apoptosis in mouse 4T1 cells assessed as increase in late necrotic cell death incubated for 24 hrs by Annexin V/FITC staining based flow cytometry analysis; assay type: functional
4T1 [26] = experiment: Induction of necrosis in mouse 4T1 cells cocultured with mouse BMDC cells at 12 uM incubated for 4 hrs by flow cytometry analysis; assay type: functional, cell-based
4T1 [27] = experiment: Cytotoxicity against mouse 4T1 cells assessed as cell death rate at 8 uM by PI staining based confocal microscopic analysis; assay type: functional
4T1 [28] = experiment: Induction of immunogenic cell death in mouse 4T1 cells assessed as increase in CRT translocation to cell surface at 4 to 32 uM; assay type: functional, cell-based; conditions: dose 4-32 µM
4T1 [29] = experiment: Cytotoxicity against mouse 4T1 cells assessed as cell death rate at 8 uM measured after 1 hr by MTT assay; assay type: functional
[30] = Cytotoxicity against mouse BMDM cells; assay type: toxicity, cell-based; conditions: BMDM cells (bone marrow-derived macrophages)
4T1 [31] = experiment: Induction of morphological changes in mouse 4T1 cells at 8 uM by PI staining based confocal microscopic analysis; assay type: functional, cell-based
4T1 [32] = experiment: Cytotoxicity against mouse 4T1 cells at 8 uM measured after 15 mins by MTT assay; assay type: functional, cell-based
THP-1 = experiment: Induction of M1 macrophage polarization in human THP-1 cells assessed as increase in IL-1beta level measured after 48 hrs; assay type: functional, cell-based
[33] = Cytotoxicity against mouse BMDC cells; assay type: toxicity, cell-based; conditions: BMDC cells (bone marrow-derived dendritic cells)
4T1 [34] = experiment: Antitumor activity against mouse 4T1 cells implanted in mouse assessed as reduction in tumor size; assay type: functional, cell-based
4T1 [35] = experiment: Induction of necroptosis in mouse 4T1 cells assessed as increase in cell viability in presence of necrostatin-1 by MTT assay; assay type: functional, cell-based; conditions: dose 0.625-30 µM

Compound `N=C(N)NCCC[C@@H]1NC(=O)[C@H](CCCNC(=N)N)NC(=O)[C@H](CCCNC(=N)N)NC(=O)[C@H](CCCNC(=N)N)NC(=O)[C@H](CCCNC(=N)N)NC(=O)[C@H](CCCNC(=N)N)NC(=O)[C@H](CCCNC(=N)N)NC(=O)[C@H](CCCNC(=N)N)NC(=O)[C@@H](NC(=O)[C@H](Cc2ccccc2)NC(=O)[C@H](Cc2ccccc2)NC(=O)[C@H](Cc2ccccc2)NC(=O)[C@@H](N)Cc2ccccc2)CSSC[C@@H](C(=O)O)NC1=O` (H-FFFFCRRRRRRRRC-OH; disulfide 5-14) has an IC50 (4T1 [1]) of 8.8 µM.

With `CC(=O)N[C@H]1CSSC[C@@H](C(=O)N[C@@H](CC(C)C)C(=O)N[C@@H](Cc2ccccc2)C(=O)N[C@@H](Cc2c[nH]c3ccccc23)C(=O)N[C@@H](Cc2ccccc2)C(N)=O)NC(=O)[C@H](CCCNC(=N)N)NC(=O)[C@H](CCCNC(=N)N)NC(=O)[C@H](CCCNC(=N)N)NC(=O)[C@H](CCCNC(=N)N)NC(=O)[C@H](CCCNC(=N)N)NC(=O)[C@H](CCCNC(=N)N)NC(=O)[C@H](CCCNC(=N)N)NC(=O)[C@H](CCCNC(=N)N)NC1=O` (Ac-CRRRRRRRRCLFWF-NH2; disulfide 1-10) the IC50 (4T1 [1]) was 8.5 µM.

With `CC(=O)N[C@@H](CCCNC(=N)N)C(=O)N[C@@H](CC(C)C)C(=O)N[C@@H](CC(C)C)C(=O)N[C@@H](CCCNC(=N)N)C(=O)N[C@@H](CC(C)C)C(=O)N[C@@H](CC(C)C)C(=O)N[C@@H](CCCNC(=N)N)C(=O)N[C@@H](CC(C)C)C(=O)N[C@@H](CCCNC(=N)N)C(=O)N[C@@H](CCCNC(=N)N)C(=O)N[C@@H](CC(C)C)C(=O)N[C@@H](CC(C)C)C(=O)N[C@@H](CCCNC(=N)N)C(=O)N[C@@H](CC(C)C)C(N)=O` (Ac-RLLRLLRLRRLLRL-NH2) the Activity (4T1 [2]) was “Active”, the Activity (4T1 [3]) was “Active” and the Activity (4T1 [4]) was “Active”. The Activity (4T1 [5]) was “Active”, the Activity (4T1 [6]) was “Active” and the Activity (4T1 [7]) was “Active”. The Activity (4T1 [8]) was 50%, the Activity (4T1 [9]) was “Active” and the IC50 (4T1 [1]) was 9.3 µM. For the same compound, the Activity (4T1 [10]) was “Active”, the Activity (4T1 [11]) was “Active” and the Activity (4T1 [12]) was “inactive”. For the same compound, the Activity (4T1 [13]) was “Active”, the Activity (4T1 [14]) was “Active” and the Activity (4T1 [15]) was “Active”.

With `CC(=O)N[C@@H](CCCNC(=N)N)C(=O)N[C@@H](CC(C)C)C(=O)N[C@@H](CC(C)C)C(=O)N[C@@H](CCCNC(=N)N)C(=O)N[C@@H](CC(C)C)C(=O)N[C@@H](CC(C)C)C(=O)N[C@@H](CCCNC(=N)N)C(=O)N[C@@H](CCCNC(=N)N)C(=O)N[C@@H](CC(C)C)C(=O)N[C@@H](CC(C)C)C(=O)N[C@@H](CCCNC(=N)N)C(=O)N[C@@H](CC(C)C)C(=O)N[C@@H](CC(C)C)C(=O)N[C@@H](CCCNC(=N)N)C(N)=O` (Ac-RLLRLLRRLLRLLR-NH2) the Activity (4T1 [2]) was “inactive”, the Activity (4T1 [16]) was “Active” and the Activity (4T1 [17]) was “Active”. For the same compound, the Activity (4T1 [6]) was “inactive”, the Activity (4T1 [18]) was 50% and the Activity (4T1 [19]) was “Active”. For the same compound, the Activity (4T1 [20]) was 30%, the Activity (4T1 [21]) was “inactive” and the Activity (4T1 [22]) was “Active”. The IC50 (4T1 [1]) was 3.3 µM, the Activity (4T1 [11]) was “inactive” and the Activity (4T1 [23]) was “Active”.

With `CC(=O)N[C@@H](Cc1ccccc1)C(=O)N[C@@H](Cc1c[nH]c2ccccc12)C(=O)N[C@@H](Cc1ccccc1)C(=O)N[C@@H](CC(C)C)C(=O)N[C@H]1CSSC[C@@H](C(N)=O)NC(=O)[C@H](CCCNC(=N)N)NC(=O)[C@H](CCCNC(=N)N)NC(=O)[C@H](CCCNC(=N)N)NC(=O)[C@H](CCCNC(=N)N)NC(=O)[C@H](CCCNC(=N)N)NC(=O)[C@H](CCCNC(=N)N)NC(=O)[C@H](CCCNC(=N)N)NC(=O)[C@H](CCCNC(=N)N)NC1=O` (Ac-FWFLCRRRRRRRRC-NH2; disulfide 5-14) the IC50 (4T1 [24]) was 7.5 µM, the Activity (4T1 [2]) was “inactive” and the Activity (4T1 [25]) was “Active”. For the same compound, the Activity (4T1 [26]) was “Active”, the Activity (4T1 [6]) was “inactive” and the Activity (4T1 [7]) was “Active”. For the same compound, the Activity (4T1 [27]) was “Active”, the Activity (4T1 [28]) was “Active” and the Activity (4T1 [29]) was 50%. The IC50 [30] was 10.3 µM, the Activity (4T1 [31]) was “Active” and the Activity (4T1 [9]) was “Active”. For the same compound, the IC50 (4T1 [1]) was 7.5 µM, the Activity (4T1 [32]) was “Active” and the Activity (THP-1) was “Active”. The Activity (4T1 [11]) was “Active”, the IC50 [33] was 7.8 µM and the Activity (4T1 [34]) was “Active”. The Activity (4T1 [35]) was “Dose-dependent-effect” and the Activity (4T1 [15]) was “Active”.

Work on `CC(=O)N[C@@H](CC(C)C)C(=O)N[C@@H](CC(C)C)C(=O)N[C@@H](CC(C)C)C(=O)N[C@@H](CC(C)C)C(=O)N[C@H]1CSSC[C@@H](C(N)=O)NC(=O)[C@H](CCCNC(=N)N)NC(=O)[C@H](CCCNC(=N)N)NC(=O)[C@H](CCCNC(=N)N)NC(=O)[C@H](CCCNC(=N)N)NC(=O)[C@H](CCCNC(=N)N)NC(=O)[C@H](CCCNC(=N)N)NC(=O)[C@H](CCCNC(=N)N)NC(=O)[C@H](CCCNC(=N)N)NC1=O` (Ac-LLLLCRRRRRRRRC-NH2; disulfide 5-14) yielded an IC50 (4T1 [1]) of 9.3 µM.
